Test results taken from patent US11865108B2, “Nitrogen containing bicyclic compounds” (Wockhardt Limited, priority 2019, dated 2024).
Converted amounts (≈) assume the structure as drawn.

Tests used:
[1] = tested on: E. Coli 13352; test: Agar dilution MIC, E. Coli 13352; format: cell-based; conditions: Escherichia coli
Experimental: (§1) The biological activity of representative compounds according to the invention against various bacterial strains was investigated. In a typical study, overnight grown bacterial cultures were diluted appropriately and inoculated on the agar media containing doubling dilutions of the test compounds. Observations for growth or no growth was performed after 16-20 hours of incubation at 35±2° C. in the ambient air. The overall procedure was performed as per Clinical and Laboratory Standards Institute (CLSI) recommendations, (Clinical and Laboratory Standards Institute (CLSI), Performance Standards for Antimicrobial Susceptibility Testing, 20th Informational Supplement, M07-A9, Volume 32, No. 2, 2012). Molten Mueller Hinton Agar (MHA) (BD, USA) containing serial dilutions of each antibacterial agent were poured on to the plates and allowed to solidify. Appropriate suspensions from the freshly grown cultures were prepared in normal saline so that about 10^4 CFU/spot of the organism was delivered on to the drug containing agar plates using automated multipoint inoculator (Mast, UK). The plates were incubated in Biochemical oxygen demand (BOD) incubator at 37° C. for 18 hours and then examined for growth. […] The Table 2 depicts the antibacterial activity profile of compounds according to present invention against various multidrug resistant bacterial strains.

[2] = tested on: E. Coli 13353; test: Agar dilution MIC, E. Coli 13353; format: cell-based; conditions: Escherichia coli
Experimental: as §1

[3] = tested on: K. pneumoniae H 521; test: Agar dilution MIC, K. pneumoniae H 521; format: cell-based; conditions: Klebsiella pneumoniae, H521
Experimental: as §1

[4] = tested on: E. Coli S 18; test: Agar dilution MIC, E. Coli S 18; format: cell-based; conditions: Escherichia coli
Experimental: as §1

[5] = tested on: K. pneumoniae H 525; test: Agar dilution MIC, K. pneumoniae H 525; format: cell-based; conditions: Klebsiella pneumoniae, H525
Experimental: as §1

[6] = tested on: K. pneumoniae H 523; test: Agar dilution MIC, K. pneumoniae H 523; format: cell-based; conditions: Klebsiella pneumoniae, H523
Experimental: as §1

[7] = tested on: E. Coli M 50; test: Agar dilution MIC, E. Coli M 50; format: cell-based; conditions: Escherichia coli
Experimental: as §1

[8] = tested on: E. Coli 7 MP; test: Agar dilution MIC, E. Coli 7 MP; format: cell-based; conditions: Escherichia coli
Experimental: as §1

[9] = tested on: K. pneumoniae H 522; test: Agar dilution MIC, K. pneumoniae H 522; format: cell-based; conditions: Klebsiella pneumoniae, H522
Experimental: as §1

[10] = tested on: E. Coli M 138; test: Agar dilution MIC, E. Coli M 138; format: cell-based; conditions: Escherichia coli
Experimental: as §1

[11] = tested on: E. Coli 13351; test: Agar dilution MIC, E. Coli 13351; format: cell-based; conditions: Escherichia coli
Experimental: as §1

[12] = tested on: KP ATCC 700603; test: Agar dilution MIC, KP ATCC 700603; format: cell-based, K. pneumoniae; conditions: Klebsiella pneumoniae, ATCC700603
Experimental: as §1

[13] = tested on: E. Coli M 36; test: Agar dilution MIC, E. Coli M 36; format: cell-based; conditions: Escherichia coli
Experimental: as §1

[14] = tested on: E. Coli M 49; test: Agar dilution MIC, E. Coli M 49; format: cell-based; conditions: Escherichia coli
Experimental: as §1

Compound	MIC [1] [µg/mL]	MIC [2] [µg/mL]	MIC [3] [µg/mL]	MIC [4] [µg/mL]	MIC [5] [µg/mL]	MIC [6] [µg/mL]	MIC [7] [µg/mL]	MIC [8] [µg/mL]	MIC [9] [µg/mL]	MIC [10] [µg/mL]	MIC [11] [µg/mL]	MIC [12] [µg/mL]	MIC [13] [µg/mL]	MIC [14] [µg/mL]
C[C@H]1CN[C@@H](CONC(=O)[C@@H]2CC[C@@H]3CN2C(=O)N3OS(=O)(=O)O)C1 [Example 4, (2S,5R)—N-{[(2R,4R)-4-Methyl-pyrrolidin-2-yl]methyloxy}-7-oxo-6-(sulfooxy)-1,6-diazabicyclo[3.2.1]octane-2-carboxamide]	2 (≈ 5.29 µM)	1 (≈ 2.64 µM)	2 (≈ 5.29 µM)	1 (≈ 2.64 µM)	2 (≈ 5.29 µM)	2 (≈ 5.29 µM)	1 (≈ 2.64 µM)	2 (≈ 5.29 µM)	2 (≈ 5.29 µM)	1 (≈ 2.64 µM)	1 (≈ 2.64 µM)	> 32	0.5 (≈ 1.32 µM)	4 (≈ 10.6 µM)
O=C(NOC[C@@H]1C[C@@H](CO)CN1)[C@@H]1CC[C@@H]2CN1C(=O)N2OS(=O)(=O)O [Example 5]	2 (≈ 5.07 µM)	1 (≈ 2.54 µM)	1 (≈ 2.54 µM)	1 (≈ 2.54 µM)	1 (≈ 2.54 µM)	1 (≈ 2.54 µM)	1 (≈ 2.54 µM)	2 (≈ 5.07 µM)	1 (≈ 2.54 µM)	1 (≈ 2.54 µM)	1 (≈ 2.54 µM)	> 32	1 (≈ 2.54 µM)	4 (≈ 10.1 µM)
O=C(NOC[C@@H]1C[C@H](CO)CN1)[C@@H]1CC[C@@H]2CN1C(=O)N2OS(=O)(=O)O [Example 6]	2 (≈ 5.07 µM)	1 (≈ 2.54 µM)	2 (≈ 5.07 µM)	1 (≈ 2.54 µM)	1 (≈ 2.54 µM)	2 (≈ 5.07 µM)	1 (≈ 2.54 µM)	2 (≈ 5.07 µM)	2 (≈ 5.07 µM)	1 (≈ 2.54 µM)	1 (≈ 2.54 µM)	> 32	1 (≈ 2.54 µM)	4 (≈ 10.1 µM)
O=C(NOC[C@H]1C[C@@H](CO)CN1)[C@@H]1CC[C@@H]2CN1C(=O)N2OS(=O)(=O)O [Example 8]	4 (≈ 10.1 µM)	1 (≈ 2.54 µM)	4 (≈ 10.1 µM)	2 (≈ 5.07 µM)	1 (≈ 2.54 µM)	1 (≈ 2.54 µM)	1 (≈ 2.54 µM)	4 (≈ 10.1 µM)	8 (≈ 20.3 µM)	1 (≈ 2.54 µM)	2 (≈ 5.07 µM)	> 32	1 (≈ 2.54 µM)	4 (≈ 10.1 µM)

The remaining lines, values ahead:

MIC [1] [µg/mL]	MIC [2] [µg/mL]	MIC [3] [µg/mL]	MIC [4] [µg/mL]	MIC [5] [µg/mL]	MIC [6] [µg/mL]	MIC [7] [µg/mL]	MIC [8] [µg/mL]	MIC [9] [µg/mL]	MIC [10] [µg/mL]	MIC [11] [µg/mL]	MIC [12] [µg/mL]	MIC [13] [µg/mL]	MIC [14] [µg/mL]	Compound
2 (≈ 5.05 µM)	1 (≈ 2.52 µM)	2 (≈ 5.05 µM)	1 (≈ 2.52 µM)	2 (≈ 5.05 µM)	2 (≈ 5.05 µM)	1 (≈ 2.52 µM)	2 (≈ 5.05 µM)	2 (≈ 5.05 µM)	1 (≈ 2.52 µM)	1 (≈ 2.52 µM)	> 32	1 (≈ 2.52 µM)	4 (≈ 10.1 µM)	O=C(NOC[C@@H]1C[C@@H](CF)CN1)[C@@H]1CC[C@@H]2CN1C(=O)N2OS(=O)(=O)O [Example 10]
4 (≈ 10.2 µM)	2 (≈ 5.08 µM)	4 (≈ 10.2 µM)	2 (≈ 5.08 µM)	2 (≈ 5.08 µM)	2 (≈ 5.08 µM)	2 (≈ 5.08 µM)	8 (≈ 20.3 µM)	4 (≈ 10.2 µM)	4 (≈ 10.2 µM)	4 (≈ 10.2 µM)	> 32	2 (≈ 5.08 µM)	4 (≈ 10.2 µM)	NC[C@H]1CN[C@H](CONC(=O)[C@@H]2CC[C@@H]3CN2C(=O)N3OS(=O)(=O)O)C1 [Example 9]
